From US20240067693A1, “POLYPEPTIDES AND USES THEREOF” (MEDIMMUNE LIMITED, priority 2020, published 2024)
Numbered stars: 1 amine (or outer) side, 2 acyl side, 3 side chain; on linkers, the order of the positions; unused ones are H or OH. Bridge positions count the residues as written; N and C are the ends. Square brackets hold non-standard residues; d marks the D form. Side chains are listed from the residue outwards. Peptide text beside a SMILES is read from it. * marks the point of attachment. C20 diacid = O=C(O)CCCCCCCCCCCCCCCCCCC(=O)*; C18 diacid = O=C(O)CCCCCCCCCCCCCCCCC(=O)*; γGlu = O=C(O)[C@H](CCC(=O)[*:2])N[*:1]; Aib = CC(C)(N)C(=O)O

What was measured:
in vivo = details: male, Sprague-Dawley, rat, 20 nmol/kg
[1] = molecular target: T1, rat amylin receptor (calcitonin receptor co-expressed with receptor activity modifying protein, RAMP3) (Rat AMYR3) (Rattus norvegicus, UniProt P32214+Q9JJ73); assay: cAMP production in HEK cells with stable recombinant expression of rat amylin receptor (Rat AMYR3); assay type: cell-based; details: assay buffer with 0.1% BSA
T1 construct: expressed in transfected cells
T1 sequence (P32214 25-516): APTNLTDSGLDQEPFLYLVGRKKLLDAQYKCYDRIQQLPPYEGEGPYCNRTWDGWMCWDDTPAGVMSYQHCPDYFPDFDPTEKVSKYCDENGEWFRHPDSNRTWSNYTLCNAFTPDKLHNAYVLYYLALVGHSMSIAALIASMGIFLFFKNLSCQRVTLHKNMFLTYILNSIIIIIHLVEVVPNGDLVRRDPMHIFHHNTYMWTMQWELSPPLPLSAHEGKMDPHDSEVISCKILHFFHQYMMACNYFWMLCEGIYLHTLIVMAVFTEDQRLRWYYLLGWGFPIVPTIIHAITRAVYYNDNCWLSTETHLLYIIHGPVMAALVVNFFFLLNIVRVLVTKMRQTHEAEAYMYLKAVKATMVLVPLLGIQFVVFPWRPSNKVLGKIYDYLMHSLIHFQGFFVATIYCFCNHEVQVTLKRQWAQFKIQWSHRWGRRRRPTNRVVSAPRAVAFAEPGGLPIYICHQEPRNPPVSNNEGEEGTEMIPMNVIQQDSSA
T1 sequence (Q9JJ73 23-147 partner): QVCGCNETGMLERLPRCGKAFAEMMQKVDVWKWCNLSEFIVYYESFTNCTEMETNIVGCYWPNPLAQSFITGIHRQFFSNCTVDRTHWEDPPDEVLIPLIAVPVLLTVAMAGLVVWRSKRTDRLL
Procedure: (§1) The functional activities of lipidated pramlintide analogue peptides, such as cAMP production, were tested in 1321N1 cell line with stable recombinant expression of human calcitonin receptor (hCTR) or human amylin receptor (calcitonin receptor co-expressed with receptor activity modifying protein, RAMP3) (hAMYR3) or HEK cells with stable recombinant expression of rat calcitonin receptor (rat CTR) or rat amylin receptor (calcitonin receptor co-expressed with receptor activity modifying protein, RAMP3) (Rat AMYR3).
(§2) Cryopreserved cell stock was thawed rapidly in a water-bath, suspended in assay buffer (0.1% BSA (Sigma # A3059) in HBSS (Sigma # H8264) with 25 mM HEPES, pH 7.4 and containing 0.5 mM IB MX (Sigma# 17018)) and spun at 240×g for 5 minutes. Cells were re-suspended in assay buffer at a batch-dependent optimized concentration (e.g. hCTR cells at 0.125×10^5 cells/mL, hAMYR3 cells at 0.125×10^5 cells/mL, rat CTR cells at 1x10^5 cells/mL, rat AMYR3 at 2×10^5 cells/mL).
(§3) The test peptide stock was prepared in DMSO and diluted in assay buffer to reach stated concentrations and transferred in duplicates into a 384-black shallow well microtitre assay plate (Corning # 3676). Cells were added to the assay plate, incubated at room temperature for 30 minutes and the cAMP level measured using cAMP dynamic 2 HTRF kit (Cisbio, Cat # 62AM4PEJ), following the two step protocol as per manufacturer's recommendations. The plates were read on an Envision (Perkin Elmer) using excitation wavelength of 320 nm and emission wavelengths of 620nm & 665 nm.
(§4) Data was transformed to % Delta F as described in the manufacturer's guidelines and analyzed as percent activation of maximal amylin or calcitonin effect by 4-parameter logistic fit to determine EC50 values. The selectivity of a peptide to hAMYR vs hCTR is defined as a ratio of EC50 values at the two receptors.

[2] = molecular target: T2, human amylin receptor (calcitonin receptor co-expressed with receptor activity modifying protein, RAMP3) (hAMYR3) (Homo sapiens, UniProt O60896+P30988); assay: cAMP production in 1321N1 cells with stable recombinant expression of human amylin receptor (hAMYR3); assay type: cell-based; details: for Ratio (selectivity hAMYR vs hCTR, ratio of EC50 values at the two receptors): EC50 hCTR / EC50 hAMYR3; for EC50: cAMP, 1321N1 cells, assay buffer with 0.1% BSA, read-out: EC50 (pM) hAMYR3
T2 construct: expressed in transfected cells
T2 sequence (P30988 25-474): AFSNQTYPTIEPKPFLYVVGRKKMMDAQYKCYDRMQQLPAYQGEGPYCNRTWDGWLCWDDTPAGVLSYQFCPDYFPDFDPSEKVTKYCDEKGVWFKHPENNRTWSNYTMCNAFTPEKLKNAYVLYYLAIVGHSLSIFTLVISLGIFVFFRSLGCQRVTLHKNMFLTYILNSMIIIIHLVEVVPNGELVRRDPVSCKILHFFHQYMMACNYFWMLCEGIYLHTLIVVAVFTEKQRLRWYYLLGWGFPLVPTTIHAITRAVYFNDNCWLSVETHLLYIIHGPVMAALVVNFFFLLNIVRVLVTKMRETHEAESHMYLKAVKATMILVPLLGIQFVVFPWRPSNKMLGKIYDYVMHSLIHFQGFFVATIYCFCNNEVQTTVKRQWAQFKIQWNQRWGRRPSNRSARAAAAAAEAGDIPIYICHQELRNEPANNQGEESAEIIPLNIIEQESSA
T2 sequence (O60896 24-148 partner): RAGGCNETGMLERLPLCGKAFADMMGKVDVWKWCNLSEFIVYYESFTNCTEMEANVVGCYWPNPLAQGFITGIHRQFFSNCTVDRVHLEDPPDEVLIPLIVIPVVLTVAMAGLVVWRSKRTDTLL
In short: (§5)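 Thawed cells in HBSS/0.1% BSA/25 mM HEPES pH 7.4 with 0.5 mM IBMX were incubated with peptides 30 min at room temperature; cAMP read by HTRF. EC50 from 4-parameter fit of % activation relative to maximal amylin or calcitonin effect.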

[3] = molecular target: T3, human calcitonin receptor (hCTR) (Homo sapiens, UniProt P30988); assay: cAMP production in 1321N1 cells with stable recombinant expression of human calcitonin receptor (hCTR); assay type: cell-based; details: cAMP, 1321N1 cells, assay buffer with 0.1% BSA; read-out: EC50 (pM) hCTR
T3 construct: expressed in transfected cells
T3 sequence (P30988 25-474): T2 sequence (P30988 25-474)
In short: as §5

lean rats = assay: Rat acute food intake study; assay type: in vivo; details: lean male Sprague Dawley rats, 20 nmol/kg subcutaneously
Procedure: Male Sprague Dawley rats were obtained from Taconic Denmark, ApS at approximately 7 weeks of age. Rats were implanted with a microchip for identification, housed 4/cage with enrichment, free access to food and water, and allowed one week acclimatisation while non-invasive characterization was performed. Rats were on a 12:12 light:dark cycle that switches at 1pm:1am. Food intake was monitored via the HM2 system (Lafayette Instrument) that allows for monitoring in a home cage. As each rat enters an access tunnel to feed, an IR beam is broken, and the implanted microchip is read. Resulting changes to food weight is then assigned to the specific animal. Social order has shown no impact to overall feeding patterns and amounts.
Rats were sorted into groups based on Day -1 body weight and 24-hour accumulated food intake (n=7 per group). On Day 0 rats were weighed, then fasted for 6 hours. Thirty (30) minutes prior to the reintroduction of food, rats were dosed subcutaneously (5 mL/kg) with 20 nmol/kg of test compound or 60 nmol/kg peptide 1 (pramlintide) diluted in an appropriate vehicle, after which food was returned, and lights went out. Automated food intake was monitored for the following 3 days, and rats were weighed once per day.
Food intake per rat was batched into 1-hour intervals and integrated into Gubra's GubraView data management system. Discrete food intake data was exported into MS Excel from which cumulative food intake data was generated. Cumulative food intake data was then transposed into GraphPad Prism (v8.0.1) for analysis of dark period feeding

[4] = molecular target: T4, rat calcitonin receptor (rat CTR) (Rattus norvegicus, UniProt P32214); assay: cAMP production in HEK cells with stable recombinant expression of rat calcitonin receptor (rat CTR); assay type: cell-based; details: assay buffer with 0.1% BSA
T4 construct: expressed in transfected cells
T4 sequence (P32214 25-516): T1 sequence (P32214 25-516)
Procedure: as §1, §2, §3, §4

half-life (in vivo; iv) [h] | half-life (in vivo; sc) [h] | EC50 [1] [pM] | Ratio (selectivity hAMYR vs hCTR, ratio of EC50 values at the two receptors) [2] | EC50 [2] [pM] | EC50 [3] [pM] | EC50 [4] [pM] | SMILES | Cummulative food intake (% vehicle treated intake) At 12 h (lean rats) [% vehicle treated intake] | Cummulative food intake (% vehicle treated intake) At 24 h (lean rats) [% vehicle treated intake] | Cummulative food intake (% vehicle treated intake) At 48 h (lean rats) [% vehicle treated intake]
5.4 | 8.1 | 5.9 | 55 | 259 | 14200 | 514 | CC[C@H](C)[C@H](NC(=O)[C@@H]1CCCN1C(=O)CNC(=O)[C@H](Cc1ccccc1)NC(=O)[C@H](CC(N)=O)NC(=O)C(C)(C)NC(=O)[C@H](CO)NC(=O)[C@H](CO)NC(=O)[C@H](Cc1c[nH]cn1)NC(=O)[C@@H](NC(=O)[C@H](CC(C)C)NC(=O)[C@H](Cc1ccccc1)NC(=O)[C@H](CC(N)=O)NC(=O)[C@H](C)NC(=O)[C@H](CC(C)C)NC(=O)[C@H](CCCNC(=N)N)NC(=O)[C@H](CCC(N)=O)NC(=O)[C@@H](NC(=O)[C@H](C)NC(=O)[C@@H]1CSSC[C@H](NC(=O)[C@H](CCCCN)NC(=O)[C@@H](N)CCCCNC(=O)CC[C@H](NC(=O)CCCCCCCCCCCCCCCCC(=O)O)C(=O)O)C(=O)N[C@@H](CC(N)=O)C(=O)N[C@@H]([C@@H](C)O)C(=O)N[C@@H](C)C(=O)N[C@@H]([C@@H](C)O)C(=O)N1)[C@@H](C)O)C(C)C)C(=O)N[C@@H](CC(C)C)C(=O)N1CCC[C@H]1C(=O)N1CCC[C@H]1C(=O)N[C@H](C(=O)N[C@@H](CC(N)=O)C(=O)N[C@H](C(=O)NCC(=O)N[C@@H](CO)C(=O)N[C@@H](CC(N)=O)C(=O)N[C@H](C(=O)N[C@@H](Cc1ccc(O)cc1)C(N)=O)[C@@H](C)O)C(C)C)[C@@H](C)O [Peptide 35, K(γE-C18diacid)K[CNTATC]ATQRLANFLVHSS(Aib)NFGPILPPTNVGSNTY-amide] (H-K([γGlu-C18 diacid])KCNTATCATQRLANFLVHSS[Aib]NFGPILPPTNVGSNTY-NH2; disulfide 3-8; N-terminus assumed) | 49.8 | 44.8 | 72
 |  | 23.7 | 8 | 1210 | 9560 | 9050 | CC[C@H](C)[C@H](NC(=O)[C@@H]1CCCN1C(=O)CNC(=O)[C@H](Cc1ccccc1)NC(=O)[C@H](CC(N)=O)NC(=O)[C@H](CC(N)=O)NC(=O)[C@H](CO)NC(=O)[C@H](CO)NC(=O)[C@H](Cc1c[nH]cn1)NC(=O)[C@H](CCCNC(=N)N)NC(=O)[C@H](CC(C)C)NC(=O)[C@H](Cc1ccccc1)NC(=O)[C@H](CCC(=O)O)NC(=O)[C@H](C)NC(=O)[C@H](CC(C)C)NC(=O)[C@H](CCCNC(=N)N)NC(=O)[C@H](CCC(N)=O)NC(=O)[C@@H](NC(=O)[C@H](C)NC(=O)[C@@H]1CSSC[C@H](NC(=O)[C@@H](N)CCCCNC(=O)CC[C@H](NC(=O)CC[C@H](NC(=O)CCCCCCCCCCCCCCCCCCC(=O)O)C(=O)O)C(=O)O)C(=O)N[C@@H](CC(N)=O)C(=O)N[C@@H]([C@@H](C)O)C(=O)N[C@@H](C)C(=O)N[C@@H]([C@@H](C)O)C(=O)N1)[C@@H](C)O)C(=O)N[C@@H](CC(C)C)C(=O)N1CCC[C@H]1C(=O)N1CCC[C@H]1C(=O)N[C@H](C(=O)N[C@@H](CC(N)=O)C(=O)N[C@H](C(=O)NCC(=O)N[C@@H](CO)C(=O)N[C@@H](CC(N)=O)C(=O)N[C@H](C(=O)N[C@@H](Cc1ccc(O)cc1)C(N)=O)[C@@H](C)O)C(C)C)[C@@H](C)O [Peptide 116] (H-K([γGlu-γGlu-C20 diacid])CNTATCATQRLAEFLRHSSNNFGPILPPTNVGSNTY-NH2; disulfide 2-7) | 51.7 | 43.1 | 50.2
